{"source": "ChEMBL document CHEMBL1201862", "about": "“PubChem BioAssay data set” (2004)", "experiment_in_all_cases": "NCI anticancer screen, dose series, 48 h", "key": {"EKVX": {"test_system": "EKVX"}, "M14": {"test_system": "M14"}, "MDA-N": {"test_system": "MDA-N"}, "PC-3": {"test_system": "PC-3"}, "SR": {"test_system": "SR"}, "COLO 205": {"test_system": "COLO 205"}, "T47D": {"test_system": "T47D"}, "MDA-MB-435": {"test_system": "MDA-MB-435"}, "Hs-578T": {"test_system": "Hs-578T"}, "SNB-19": {"test_system": "SNB-19"}, "SK-MEL-5": {"test_system": "SK-MEL-5"}, "OVCAR-4": {"test_system": "OVCAR-4"}, "MDA-MB-231": {"test_system": "MDA-MB-231"}, "CCRF-CEM": {"test_system": "CCRF-CEM"}, "MOLT-4": {"test_system": "MOLT-4"}, "RPMI-8226": {"test_system": "RPMI-8226"}, "HL-60": {"test_system": "HL-60"}, "HCT-116": {"test_system": "HCT-116"}, "U-251": {"test_system": "U-251"}, "SK-OV-3": {"test_system": "SK-OV-3"}, "RXF 393": {"test_system": "RXF 393"}, "HOP-62": {"test_system": "HOP-62"}, "HOP-92": {"test_system": "HOP-92"}, "LOX IMVI": {"test_system": "LOX IMVI"}, "UACC-62": {"test_system": "UACC-62"}, "UO-31": {"test_system": "UO-31"}, "SF-295": {"test_system": "SF-295"}, "NCI-H460": {"test_system": "NCI-H460"}, "ACHN": {"test_system": "ACHN"}, "HT-29": {"test_system": "HT-29"}, "NCI/ADR-RES": {"test_system": "NCI/ADR-RES"}, "SF-268": {"test_system": "SF-268"}, "TK-10": {"test_system": "TK-10"}, "786-0": {"test_system": "786-0"}, "SF-539": {"test_system": "SF-539"}, "KM12": {"test_system": "KM12"}, "HCC 2998": {"test_system": "HCC 2998"}, "Malme-3M": {"test_system": "Malme-3M"}, "A549": {"test_system": "A549"}, "SW-620": {"test_system": "SW-620"}, "K562": {"test_system": "K562"}, "NCI-H23": {"test_system": "NCI-H23"}, "OVCAR-3": {"test_system": "OVCAR-3"}, "MCF7": {"test_system": "MCF7"}, "SK-MEL-28": {"test_system": "SK-MEL-28"}, "UACC-257": {"test_system": "UACC-257"}, "DU-145": {"test_system": "DU-145"}, "NCI-H522": {"test_system": "NCI-H522"}, "SK-MEL-2": {"test_system": "SK-MEL-2"}, "BT-549": {"test_system": "BT-549"}, "NCI-H226": {"test_system": "NCI-H226"}, "SNB-75": {"test_system": "SNB-75"}, "IGROV-1": {"test_system": "IGROV-1"}, "OVCAR-5": {"test_system": "OVCAR-5"}, "HCT-15": {"test_system": "HCT-15"}, "OVCAR-8": {"test_system": "OVCAR-8"}, "SN12C": {"test_system": "SN12C"}}, "note": "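Cells were grown in 96-well plates and exposed to each compound for 48 hours at five concentrations; endpoints were interpolated linearly between bracketing concentrations, or set to the highest concentration if not reached. Here, GI50 denotes the concentration required for 50% inhibition of growth.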 Active and inactive are the calls of the source. Rule as the data show it: active = GI50 up to about 1.1 µM and inactive = higher. *1 amine or outer side, *2 acyl side, *3 side chain or, on linkers, in order; H or OH if unused. Where a SMILES comes first, the peptide text is derived from it. [ ]: non-standard residue; d: D form. The star is where a group is joined. X31 = CC(=O)N(C)SCC(N[*:1])C(=O)[*:2]; Fmoc = O=C(OCC1c2ccccc2-c2ccccc21)*; For = O=C*"}
{"smiles": "CC(=O)N(C)SCC(NC(=O)C(Cc1ccccc1)NC(=O)OCC1c2ccccc2-c2ccccc21)C(=O)NC(Cc1ccccc1)C(=O)NC(Cc1cn(C=O)c2ccccc12)C(=O)NC(CCCCNC(=O)OCC1c2ccccc2-c2ccccc21)C(=O)NC(C(=O)NC(CSN(C)C(C)=O)C(=O)NC(C(N)=O)C(C)O)C(C)O", "note": "(configuration not stated) (Fmoc-F[X31]FW(For)K(Fmoc)T[X31]T-NH2; configuration not given here)", "values": [{"measurement": "GI50", "setting": "EKVX", "result": "84.9 µM (inactive)"}, {"measurement": "GI50", "setting": "M14", "result": "31 µM (inactive)"}, {"measurement": "GI50", "setting": "MDA-N", "result": "36.7 µM (inactive)"}, {"measurement": "GI50", "setting": "PC-3", "result": "97.1 µM (inactive)"}, {"measurement": "GI50", "setting": "SR", "result": "76.9 µM (inactive)"}, {"measurement": "GI50", "setting": "COLO 205", "result": "36.6 µM (inactive)"}, {"measurement": "GI50", "setting": "T47D", "result": "> 100 µM (inactive)"}, {"measurement": "GI50", "setting": "MDA-MB-435", "result": "94.4 µM (inactive)"}, {"measurement": "GI50", "setting": "Hs-578T", "result": "> 100 µM (inactive)"}, {"measurement": "GI50", "setting": "SNB-19", "result": "75.5 µM (inactive)"}, {"measurement": "GI50", "setting": "SK-MEL-5", "result": "55.1 µM (inactive)"}, {"measurement": "GI50", "setting": "OVCAR-4", "result": "> 100 µM (inactive)"}, {"measurement": "GI50", "setting": "MDA-MB-231", "result": "14.9 µM (inactive)"}, {"measurement": "GI50", "setting": "CCRF-CEM", "result": "> 100 µM (inactive)"}, {"measurement": "GI50", "setting": "MOLT-4", "result": "> 100 µM (inactive)"}, {"measurement": "GI50", "setting": "RPMI-8226", "result": "> 100 µM (inactive)"}, {"measurement": "GI50", "setting": "HL-60", "result": "> 100 µM (inactive)"}, {"measurement": "GI50", "setting": "HCT-116", "result": "77.8 µM (inactive)"}, {"measurement": "GI50", "setting": "U-251", "result": "> 100 µM (inactive)"}, {"measurement": "GI50", "setting": "SK-OV-3", "result": "37.2 µM (inactive)"}, {"measurement": "GI50", "setting": "RXF 393", "result": "20.5 µM (inactive)"}, {"measurement": "GI50", "setting": "HOP-62", "result": "> 100 µM (inactive)"}, {"measurement": "GI50", "setting": "HOP-92", "result": "14.5 µM (inactive)"}, {"measurement": "GI50", "setting": "LOX IMVI", "result": "> 100 µM (inactive)"}, {"measurement": "GI50", "setting": "UACC-62", "result": "58.6 µM (inactive)"}, {"measurement": "GI50", "setting": "UO-31", "result": "16.2 µM (inactive)"}, {"measurement": "GI50", "setting": "SF-295", "result": "89.5 µM (inactive)"}, {"measurement": "GI50", "setting": "NCI-H460", "result": "33.5 µM (inactive)"}, {"measurement": "GI50", "setting": "ACHN", "result": "37 µM (inactive)"}, {"measurement": "GI50", "setting": "HT-29", "result": "> 100 µM (inactive)"}, {"measurement": "GI50", "setting": "NCI/ADR-RES", "result": "> 100 µM (inactive)"}, {"measurement": "GI50", "setting": "SF-268", "result": "> 100 µM (inactive)"}, {"measurement": "GI50", "setting": "TK-10", "result": "24.2 µM (inactive)"}, {"measurement": "GI50", "setting": "786-0", "result": "> 100 µM (inactive)"}, {"measurement": "GI50", "setting": "SF-539", "result": "> 100 µM (inactive)"}, {"measurement": "GI50", "setting": "KM12", "result": "19.8 µM (inactive)"}, {"measurement": "GI50", "setting": "HCC 2998", "result": "> 100 µM (inactive)"}, {"measurement": "GI50", "setting": "Malme-3M", "result": "> 100 µM (inactive)"}, {"measurement": "GI50", "setting": "A549", "result": "> 100 µM (inactive)"}, {"measurement": "GI50", "setting": "SW-620", "result": "> 100 µM (inactive)"}, {"measurement": "GI50", "setting": "K562", "result": "> 100 µM (inactive)"}, {"measurement": "GI50", "setting": "NCI-H23", "result": "20.8 µM (inactive)"}, {"measurement": "GI50", "setting": "OVCAR-3", "result": "> 100 µM (inactive)"}, {"measurement": "GI50", "setting": "MCF7", "result": "47.4 µM (inactive)"}, {"measurement": "GI50", "setting": "SK-MEL-28", "result": "> 100 µM (inactive)"}, {"measurement": "GI50", "setting": "UACC-257", "result": "90.2 µM (inactive)"}, {"measurement": "GI50", "setting": "DU-145", "result": "> 100 µM (inactive)"}, {"measurement": "GI50", "setting": "NCI-H522", "result": "89.7 µM (inactive)"}, {"measurement": "GI50", "setting": "SK-MEL-2", "result": "40.6 µM (inactive)"}, {"measurement": "GI50", "setting": "BT-549", "result": "> 100 µM (inactive)"}, {"measurement": "GI50", "setting": "NCI-H226", "result": "> 100 µM (inactive)"}, {"measurement": "GI50", "setting": "SNB-75", "result": "33.1 µM (inactive)"}, {"measurement": "GI50", "setting": "IGROV-1", "result": "66.4 µM (inactive)"}, {"measurement": "GI50", "setting": "OVCAR-5", "result": "> 100 µM (inactive)"}, {"measurement": "GI50", "setting": "HCT-15", "result": 95.1, "unit": "µM"}, {"measurement": "GI50", "setting": "OVCAR-8", "result": "> 100 µM (inactive)"}, {"measurement": "GI50", "setting": "SN12C", "result": "> 100 µM (inactive)"}]}
